Laboratory results as given in publication PMC8405091, “Microwave-assisted Phospha-Michael addition reactions in the 13α-oestrone series and in vitro antiproliferative properties” (Journal of Enzyme Inhibition and Medicinal Chemistry, 2021).

Key:
[1] = system: certain cancer cell lines; set-up: method as in PMID 25845933; details: cited from earlier work
UPCI-SCC-154 cells = assay: MTT antiproliferative assay, UPCI-SCC-154; format: cell-based, human; details: Homo sapiens, 72 h, 72 h
How it was run: (§1)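 Following overnight seeding, the cells receive compound (10 and 30 µM final) in MEM with 10% FBS and incubate 72 h. MTT is then added for 4 h and the formazan is solubilised in DMSO with shaking at 37 °C.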

SiHa cells = assay: MTT antiproliferative assay, SiHa; format: cell-based, human; details: Homo sapiens, 72 h
How it was run: as §1

T47D cells = assay: MTT antiproliferative assay, T47D; format: cell-based, human; details: Homo sapiens, 72 h
How it was run: as §1

[2] = system: non-cancerous mouse embryo fibroblast (NIH/3T3) cells; assay: MTT assay on non-cancerous fibroblasts (tumour selectivity); format: cell-based; details: Mus musculus, NIH3T3, 72 h
Description: (§2) The antiproliferative properties of the newly synthesized compounds (9–20) and their starting materials (4 and 5) were determined on a panel of human adherent cancer cell lines. MCF-7, MDA-MB-231 and T47D were isolated from breast cancers differing in biochemical background, while A2780 cells were isolated from ovarian cancer. HeLa and SiHa are cervical cancer cell lines positive for HPV-18 and HPV-16, respectively, while C33-A cervical cancer cells are negative for HPV. Moreover, two oropharyngeal cancer cell lines were also utilized: the HPV-negative UPCI-SCC-131 and HPV-16 positive UPCI-SCC-154. The cancer selectivity of compounds was tested on the non-cancerous mouse embryo fibroblast cell line NIH/3T3. All cell lines were purchased from European Collection of Cell Cultures (ECCAC, Salisbury, UK) exception for SiHa and C33-A (American Tissue Culture Collection, Manassas, VA, USA) and HN-SCC-131 and UPCI-SCC-154 (German Collection of Microorganisms and Cell Cultures GmbH, Braunschweig, Germany). Cells were cultivated in minimal essential medium supplemented with 10% fetal bovine serum, 1% non-essential amino acids and an antibiotic–antimycotic mixture. The medium of oropharyngeal cancer cells additionally contained 2.0 mM L-glutamine. All media and supplements were obtained from Lonza Group Ltd., Basel, Switzerland. Near-confluent cancer cells were seeded onto a 96-well microplate at a density of 5,000 cells/well, except for C33-A which were seeded at 10,000/well. After overnight standing, new medium containing the tested compounds at 10 and 30 µM final concentration was added. After incubation for 72 h at 37 °C in humidified air containing 5% CO2, the living cells were assayed by the addition of 20 μL of 5 mg/ml 3-(4,5-dimethylthiazol-2-yl)-2,5-diphenyltetrazolium bromide (MTT) solution. MTT was converted by intact mitochondrial reductase and precipitated as purple crystals during a 4-h contact period. The medium was next removed and the precipitated formazan crystals were dissolved in 100 μL of DMSO during a 60-min period of shaking at 37 ^оC.
All in vitro experiments were carried out twice with five parallels. Stock solutions of the tested substances (10 mM) were prepared in DMSO. […] Cisplatin (Ebewe Pharma GmbH, Unterach, Austria) was used as positive control.

[3] = system: panel of human adherent cancer cell lines; assay: MTT antiproliferative assay, whole panel of cell lines; format: cell-based; details: read-out: IC50 (span over the panel)
Description: as §2, with “^оC. […]” for “^оC.”

HeLa cells = assay: MTT antiproliferative assay, HeLa; format: cell-based, human; details: Homo sapiens, 72 h
How it was run: as §1

C33-A cells = assay: MTT antiproliferative assay, C33-A; format: cell-based, human; details: Homo sapiens, C-33-A, 72 h
How it was run: as §1

UPCI-SCC-131 cells = assay: MTT antiproliferative assay, UPCI-SCC-131; format: cell-based, human; details: Homo sapiens, 72 h, 72 h
How it was run: as §1

A2780 cells = assay: MTT antiproliferative assay, A2780; format: cell-based, human; details: Homo sapiens, A2780, 72 h
How it was run: as §1

MCF-7 cells = assay: MTT antiproliferative assay, MCF-7; format: cell-based, human; details: Homo sapiens, MCF7, 72 h
How it was run: as §1

MDA-MB-231 cells = assay: MTT antiproliferative assay, MDA-MB-231; format: cell-based, human; details: Homo sapiens, MDA-MB-231, 72 h
How it was run: as §1

[4] = read-out: calculated IC50 value
[5] = read-out: Growth inhibition, % ± SEM, 10 μM
[6] = read-out: Growth inhibition, % ± SEM, 30 μM
[7] = read-out: Growth inhibition, % ± SEM

For `CCc1ccc(-c2cn([C@H]3C[C@H]4[C@@H]5CCc6cc(OCc7ccccc7)ccc6[C@H]5CC[C@@]4(C)[C@@H]3O)nn2)cc1` [Compound 28], the IC50 [1] is given as “low micromolar range”.
For `COc1ccc2c(c1)CC[C@@H]1[C@@H]2CC[C@@]2(C)C(=O)[C@@H](CP(=O)(c3ccc(C)cc3)c3ccc(C)cc3)C[C@@H]12` [Compound 14, [(3-methoxy-17-oxo-13α-oestra-1,3,5(10)-trien-16β-yl)methyl]di-p-tolylphosphine oxide], the inhibition at 10 µM (UPCI-SCC-154 cells; read-out: Growth inhibition, % ± SEM, UPCI-SCC-154, 10 μM) was < 20%, the inhibition at 30 µM (UPCI-SCC-154 cells; read-out: Growth inhibition, % ± SEM, UPCI-SCC-154, 30 μM) was 87 ± 1.16% and the IC50 (UPCI-SCC-154 cells; [4]) was 11.4 µM. For the same compound, the inhibition at 10 µM (SiHa cells; [5]) was < 20%, the inhibition at 30 µM (SiHa cells; [6]) was 93 ± 1.37% and the IC50 (SiHa cells; [4]) was 11.8 µM. For the same compound, the inhibition at 10 µM (T47D cells; [5]) was 22.6 ± 1.33%, the inhibition at 30 µM (T47D cells; [6]) was 86 ± 1.51% and the IC50 (T47D cells; [4]) was 13.8 µM. The inhibition at 10 µM [2, 7] was < 20%, the inhibition at 30 µM [2, 7] was 52.7 ± 2.87% and the IC50 [2, 4] was 29.6 µM. The IC50 [3] was 10 to 25 µM, the inhibition at 10 µM (HeLa cells; [5]) was < 20% and the inhibition at 30 µM (HeLa cells; [6]) was 99.14 ± 0.37%. For the same compound, the IC50 (HeLa cells; [4]) was 12.2 µM, the inhibition at 10 µM (C33-A cells; read-out: Growth inhibition, % ± SEM, C33-A, 10 μM) was 26.9 ± 2.13% and the inhibition at 30 µM (C33-A cells; read-out: Growth inhibition, % ± SEM, C33-A, 30 μM) was 101.1 ± 0.24%. The IC50 (C33-A cells; [4]) was 10.9 µM, the inhibition at 10 µM (UPCI-SCC-131 cells; read-out: Growth inhibition, % ± SEM, UPCI-SCC-131, 10 μM) was 48.8 ± 1.5% and the inhibition at 30 µM (UPCI-SCC-131 cells; read-out: Growth inhibition, % ± SEM, UPCI-SCC-131, 30 μM) was 97.3 ± 1.38%. For the same compound, the IC50 (UPCI-SCC-131 cells; [4]) was 10.9 µM, the inhibition at 10 µM (A2780 cells; read-out: Growth inhibition, % ± SEM, A2780, 10 μM, 72 h) was < 20% and the inhibition at 30 µM (A2780 cells; read-out: Growth inhibition, % ± SEM, A2780, 30 μM, 72 h) was 100.3 ± 0.22%. The IC50 (A2780 cells; [4]) was 21.5 µM, the inhibition at 10 µM (MCF-7 cells; read-out: Growth inhibition, % ± SEM, MCF-7, 10 μM, 72 h) was < 20% and the inhibition at 30 µM (MCF-7 cells; read-out: Growth inhibition, % ± SEM, MCF-7, 30 μM, 72 h) was 90 ± 2.88%. For the same compound, the IC50 (MCF-7 cells; [4]) was 14.4 µM, the inhibition at 10 µM (MDA-MB-231 cells; [7]) was < 20% and the inhibition at 30 µM (MDA-MB-231 cells; [7]) was 98.22 ± 0.39%. It also gave an IC50 (MDA-MB-231 cells; [4]) of 17.6 µM.
